The target of series [1] is GP41 (Human immunodeficiency virus 1, UniProt Q76270). Put plainly: Binding affinity to HIV1 gp41 (46 residues) by surface plasmon resonance method. (In SPR one partner is held on a chip, and binding of the other changes the refractive index at the surface.)
Series [2] in a line: Half life in Sprague-Dawley rat at […], sc after 6 hrs. The class given is ADME, organism-based. The following applies: in vivo.
Series [3] concerns the target GP41 (Human immunodeficiency virus 1) (UniProt Q76270). Put plainly: Binding affinity to HIV1 gp41 (46 residues) assessed as effect on protein secondary structure measured as alpha-helicity in PBS buffer at pH 7.2 by circular dichroism assay (reference value: 117 %). (Circular dichroism is widely used to follow secondary structure.)
In series [4] the test system is Human immunodeficiency virus 1. The experiment in a line: Antiviral activity against HIV-1 SF33 infected in TZM-bl cells after 2 days by luciferase reporter gene assay. It is filed as functional, organism-based. Conditions: Human immunodeficiency virus 1, SF33, TZM-bl, 48 h. (In general: A reporter such as luciferase makes a cellular process visible.)
A short description of series [5]: Cytotoxicity against human TZM-bl cells assessed as reduction cell viability at <12.5 uM after 2 days by XTT assay. It is filed as cell-based. Conditions: 48 h.
A short description of series [6]: Plasma concentration in Sprague-Dawley rat at […], sc after 6 hrs. It is filed as ADME, organism-based.

As a reminder, the Kd is a measure of binding affinity in units of concentration. As a reminder, the half-life is the time needed for the level to fall by half in the phase considered. As a reminder, the EC50 is the midpoint of the concentration-response curve. A lower EC50 goes with an effect from little substance. As usually defined, the EC90 is the concentration at which the effect reaches the 90% level. A high value points to a need for much substance. In turn, enfuvirtide showed a Kd in series [1] of 182 nM. Besides, the half-life at 6 h in series [2] is 1.5 h. The values for the Activity in series [3] and in series [5] were 67% and “Non-toxic”, respectively. In series [4], this substance returned an EC50 of 3 nM. The substance further registered an EC90 in series [4] of 23 nM. Further, the concentration at 6 h in series [6] was less than 1000 nM.

The record behind these values is ChEMBL document CHEMBL3407456, “Glycosylated enfuvirtide: a long-lasting glycopeptide with potent anti-HIV activity” (J Med Chem, 2015).
